Activity calls are given as the source filed them.
Tests used:
Assay type in all cases: functional, organism-based
Candida albicans = assay: Antifungal activity against Candida albicans
Enterococcus faecalis = assay: Antibacterial activity against Streptococcus faecalis
Klebsiella pneumoniae = assay: Antibacterial activity against Klebsiella pneumoniae
Escherichia coli = assay: Antibacterial activity against Escherichia coli
Pseudomonas aeruginosa = assay: Antibacterial activity against Pseudomonas aeruginosa
Staphylococcus aureus = assay: Antibacterial activity against Staphylococcus aureus
Cryptococcus neoformans = assay: Antifungal activity against Cryptococcus neoformans
Sporothrix schenckii = assay: Antifungal activity against Sporotrichum schenckii
[1] = test system: Trichophyton mentagrophytes; assay: Antifungal activity against Trichophyton mentagrophytes
Aspergillus fumigatus = assay: Antifungal activity against Aspergillus fumigatus

Measured: Activity

COc1ccc2c(c1)-c1c(OC)c(OC)cc3c1[C@H](C2)N(C)CC3
inactive: all assays above

COc1cc(C[C@H]2c3cc(OC)c(OC)cc3CCN2C)c(Oc2cc3c(cc2OC)-c2c(OC)c(OC)cc4c2[C@H](C3)N(C)CC4)cc1OC
inactive: all assays above

COc1ccc2cc1Oc1ccc(cc1)C[C@H]1c3cc(OC)c(OC)c(c3CCN1C)Oc1c(O)c(OC)cc3c1[C@H](C2)N(C)CC3
inactive: all assays above

COc1ccc2cc1Oc1ccc(cc1)C[C@H]1c3cc(OC)c(OC)c(c3CCN1C)Oc1c(OC)c(OC)cc3c1[C@H](C2)N(C)CC3
inactive: all assays above
